Data published in patent publication US20210402211A1, “LIGHT-HYDROGEN THERAPY INCLUDING LIGHTING MODULE, LIGHTING APPARATUS, AND LIGHTING METHOD FOR PARKINSON'S DISEASE PATIENTS” (priority 2020, published 2021).

System: PD patients
Settings: without light therapy, in a short time

Q: Which “effectiveness of hydrogen therapy alone” value does the source give for `[HH]` [hydrogen, Molecular hydrogen] here?
A: not that effective
